US9776995B2, “Bicyclic sulfonamide compounds as sodium channel inhibitors” (AMGEN INC., priority 2013, dated 2017)
pIC50: −log10 of the molar value. Like-named read-outs stand apart in the source and are kept apart here.

Molecular target: Nav 1.7 (Homo sapiens (Human), UniProt Q15858)
Test: Nav 1.7 in vitro PX assay (PatchXpress whole cell voltage clamp);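 also: holding potential set for 20 to 50% inactivation, sodium current evoked by a 20 ms step to −10 mV, peak current inhibition read after compound exposure, 3–5 cells per concentration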
Format: cell-based
[1] = HEK 293 cells stably transfected with human Nav1.7, PatchXpress, partially inactivated state
[2] = in-vitro Nav 1.7 PX (PatchXpress)

Sequence of Nav 1.7 (Q15858 whole entry): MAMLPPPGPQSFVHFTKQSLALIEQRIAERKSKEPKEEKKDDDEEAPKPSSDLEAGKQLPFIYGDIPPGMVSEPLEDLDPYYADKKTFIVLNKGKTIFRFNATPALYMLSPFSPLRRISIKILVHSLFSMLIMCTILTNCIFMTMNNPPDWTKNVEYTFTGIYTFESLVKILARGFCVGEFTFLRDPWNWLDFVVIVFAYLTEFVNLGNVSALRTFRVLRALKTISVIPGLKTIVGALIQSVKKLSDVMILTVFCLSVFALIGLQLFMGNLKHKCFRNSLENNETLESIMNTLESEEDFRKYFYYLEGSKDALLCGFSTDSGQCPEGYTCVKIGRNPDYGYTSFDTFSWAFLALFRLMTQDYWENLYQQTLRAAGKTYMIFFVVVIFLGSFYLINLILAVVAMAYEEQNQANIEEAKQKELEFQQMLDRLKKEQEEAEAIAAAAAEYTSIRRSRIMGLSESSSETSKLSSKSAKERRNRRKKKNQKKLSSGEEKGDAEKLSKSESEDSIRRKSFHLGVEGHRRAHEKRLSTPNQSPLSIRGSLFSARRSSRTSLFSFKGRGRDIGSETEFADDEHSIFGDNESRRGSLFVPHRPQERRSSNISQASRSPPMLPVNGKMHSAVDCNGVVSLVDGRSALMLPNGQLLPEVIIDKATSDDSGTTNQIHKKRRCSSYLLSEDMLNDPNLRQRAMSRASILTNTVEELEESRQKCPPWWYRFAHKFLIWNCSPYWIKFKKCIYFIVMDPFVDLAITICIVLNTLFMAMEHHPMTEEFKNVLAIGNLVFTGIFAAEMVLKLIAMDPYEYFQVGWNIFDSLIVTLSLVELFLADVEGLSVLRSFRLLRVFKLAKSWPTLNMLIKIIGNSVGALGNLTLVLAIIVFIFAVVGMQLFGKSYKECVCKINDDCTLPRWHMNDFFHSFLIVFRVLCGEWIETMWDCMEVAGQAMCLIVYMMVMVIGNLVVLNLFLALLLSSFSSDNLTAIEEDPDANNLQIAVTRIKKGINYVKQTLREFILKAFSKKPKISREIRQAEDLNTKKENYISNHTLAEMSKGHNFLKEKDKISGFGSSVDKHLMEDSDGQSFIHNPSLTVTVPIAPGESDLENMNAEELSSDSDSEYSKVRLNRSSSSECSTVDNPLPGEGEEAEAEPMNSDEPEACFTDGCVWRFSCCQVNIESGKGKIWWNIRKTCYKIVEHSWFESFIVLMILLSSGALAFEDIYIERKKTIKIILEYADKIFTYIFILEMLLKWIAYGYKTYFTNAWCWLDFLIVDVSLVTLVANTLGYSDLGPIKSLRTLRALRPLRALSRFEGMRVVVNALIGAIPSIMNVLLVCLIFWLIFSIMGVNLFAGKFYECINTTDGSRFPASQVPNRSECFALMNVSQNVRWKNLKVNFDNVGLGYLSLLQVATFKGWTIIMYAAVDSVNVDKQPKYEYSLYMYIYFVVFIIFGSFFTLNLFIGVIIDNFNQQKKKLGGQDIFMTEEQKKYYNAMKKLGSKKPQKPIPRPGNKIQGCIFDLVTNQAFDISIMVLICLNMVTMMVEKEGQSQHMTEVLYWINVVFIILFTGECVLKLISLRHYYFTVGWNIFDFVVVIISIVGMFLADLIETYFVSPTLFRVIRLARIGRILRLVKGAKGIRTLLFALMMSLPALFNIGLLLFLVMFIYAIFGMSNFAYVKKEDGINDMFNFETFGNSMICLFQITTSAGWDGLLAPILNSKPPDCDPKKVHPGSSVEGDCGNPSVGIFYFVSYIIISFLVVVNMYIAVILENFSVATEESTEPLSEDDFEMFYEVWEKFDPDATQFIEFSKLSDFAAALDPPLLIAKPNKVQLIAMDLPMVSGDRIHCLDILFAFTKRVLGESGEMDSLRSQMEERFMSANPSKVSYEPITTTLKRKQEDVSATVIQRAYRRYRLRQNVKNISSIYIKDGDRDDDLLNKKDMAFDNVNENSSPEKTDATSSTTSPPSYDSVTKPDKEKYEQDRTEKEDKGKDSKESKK

SMILES	pIC50 [1]	other results
COc1cc(-c2cc(F)ccc2F)c(C)cc1-c1ncnc2cc(S(=O)(=O)Nc3ccon3)ccc12 [Example 564, 4-(2′,5′-difluoro-5-methoxy-2-methyl-4-biphenylyl)-N-3-isoxazolyl-7-quinazolinesulfonamide]	7.03	
COc1cn(-c2cc(F)cc(F)c2)c(=O)cc1-c1nccc2cc(S(=O)(=O)Nc3ccon3)ccc12 [Example 56, 1-(1-(3,5-DIFLUOROPHENYL)-5-METHOXY-2-OXO-1,2-DIHYDROPYRIDIN-4-YL)-N-(ISOXAZOL-3-YL)ISOQUINOLINE-6-SULFONAMIDE]		pIC50 (PatchXpress (PX)): 4.93
COc1cc(-c2cc(F)cc(Cl)c2)c(F)cc1-c1c[nH]c(=O)c2cc(S(=O)(=O)Nc3ccon3)ccc12 [Example 451, 4-(3′-CHLORO-2,5′-DIFLUORO-5-METHOXY-[1,1′-BIPHENYL]-4-YL)-N-(ISOXAZOL-3-YL)-1-OXO-1,2-DIHYDROISOQUINOLINE-7-SULFONAMIDE]	7.11	
COc1cc(-c2cccc(F)c2)c(Cl)cc1-c1c(O)cnc2cc(S(=O)(=O)Nc3ccon3)ccc12 (atropisomer, axis not shown; (P)) [Example 338, (P)-4-(2-chloro-3′-fluoro-5-methoxy-[1,1′-biphenyl]-4-yl)-3-hydroxy-N-(isoxazol-3-yl)quinoline-7-sulfonamide]	7.39	
COc1cc(-c2cccc(C(F)(F)F)c2)c(F)cc1-c1c2ccc(S(=O)(=O)Nc3ccon3)cc2cc(=O)n1C (atropisomer, axis not shown; (M)) [Example 552, (M)-1-(2-fluoro-5-methoxy-3′-(trifluoromethyl)-4-biphenylyl)-N-3-isoxazolyl-2-methyl-3-oxo-2,3-dihydro-6-isoquinolinesulfonamide]	5.90	
COc1cc(-c2cccc(C(F)(F)F)c2)c(C)cc1-c1ncnc2cc(S(=O)(=O)Nc3ccon3)ccc12 [Example 265, N-3-isoxazolyl-4-(5-methoxy-2-methyl-3′-(trifluoromethyl)-4-biphenylyl)-7-quinazolinesulfonamide]		pIC50 (PatchXpress (PX)): 7.74
COc1cc(-c2cccc(F)c2)c(Cl)cc1-c1[nH]c(=O)cc2cc(S(=O)(=O)Nc3ccon3)ccc12 [Example 394, 1-(2-chloro-3′-fluoro-5-methoxy-[1,1′-biphenyl]-4-yl)-N-(isoxazol-3-yl)-3-oxo-2,3-dihydroisoquinoline-6-sulfonamide 2,2,2-trifluoroacetate]	7.39	
COc1cc(-c2ccc(C)c(Cl)c2)c(C)cc1-c1nccc2cc(S(=O)(=O)Nc3ccon3)ccc12 [Example 282, 1-(3′-chloro-5-methoxy-2,4′-dimethyl-4-biphenylyl)-N-3-isoxazolyl-6-isoquinolinesulfonamide]		pIC50 [2]: 7.01
COc1cc(-c2cc(C)cc(Cl)c2)c(C)cc1-c1ncnc2cc(S(=O)(=O)Nc3ccon3)ccc12 [Example 268, 4-(3′-chloro-5-methoxy-2,5′-dimethyl-4-biphenylyl)-N-3-isoxazolyl-7-quinazolinesulfonamide]		pIC50 (PatchXpress (PX)): 7.62
COc1cc(-c2cccc(Cl)c2)cc(F)c1-c1nccc2cc(S(=O)(=O)Nc3ccon3)ccc12 [Example 538, 1-(3′-chloro-3-fluoro-5-methoxy-4-biphenylyl)-N-3-isoxazolyl-6-isoquinolinesulfonamide]	6.53	
COc1cc(-c2cc(F)cc(Cl)c2)c(F)cc1-c1[nH]c(=O)cc2cc(S(=O)(=O)Nc3ccon3)ccc12 [Example 547, 1-(3′-chloro-2,5′-difluoro-5-methoxy-4-biphenylyl)-N-3-isoxazolyl-3-oxo-2,3-dihydro-6-isoquinolinesulfonamide]	7.70	
COc1cc(-c2ccc(Cl)c(C)c2)c(Cl)cc1-c1nncc2cc(S(=O)(=O)Nc3ccsn3)ccc12 [Example 255, 1-(2,4′-dichloro-5-methoxy-3′-methyl-4-biphenylyl)-N-3-isothiazolyl-6-phthalazinesulfonamide]		pIC50 (PatchXpress (PX)): 6.49
COc1cc(-c2cc(F)cc(C(F)F)c2)c(F)cc1-c1nccc2cc(S(=O)(=O)Nc3ccon3)ccc12 [Example 362, 1-(3′-(difluoromethyl)-2,5′-difluoro-5-methoxy-[1,1′-biphenyl]-4-yl)-N-(isoxazol-3-yl)isoquinoline-6-sulfonamide]	7.28	
COc1cc(-c2cc(F)cc(Cl)c2)c(C)cc1-c1ncnc2cc(S(=O)(=O)Nc3ccon3)ccc12 [Example 270, 4-(3′-chloro-5′-fluoro-5-methoxy-2-methyl-4-biphenylyl)-N-3-isoxazolyl-7-quinazolinesulfonamide]		pIC50 (PatchXpress (PX)): 7.52
COc1cc(-c2ccc(F)c(Cl)c2)c(Cl)cc1-c1ncnc2cc(S(=O)(=O)Nc3ncccn3)ccc12 [Example 329, 4-(2,3′-dichloro-4′-fluoro-5-methoxy-[1,1′-biphenyl]-4-yl)-N-(pyrimidin-2-yl)quinazoline-7-sulfonamide]		pIC50: 7.37
COc1cc(-c2cccc(F)c2)c(Cl)cc1-c1[nH]c(=O)cc2cc(S(=O)(=O)Nc3ncccn3)ccc12 [Example 553, 1-(2-chloro-3′-fluoro-5-methoxy-4-biphenylyl)-3-oxo-N-2-pyrimidinyl-2,3-dihydro-6-isoquinolinesulfonamide]	7.35	
COc1cc(-c2cc(C)cc(C)c2)c(F)cc1-c1ncnc2cc(S(=O)(=O)Nc3ccon3)ccc12 [Example 536, 4-(2-fluoro-5-methoxy-3′,5′-dimethyl-4-biphenylyl)-N-3-isoxazolyl-7-quinazolinesulfonamide]	7.29	

SMILES	pIC50 [1]	other results
COc1cc(-c2ccc(Cl)c(C)c2)c(F)cc1-c1c(=O)[nH]cc2cc(S(=O)(=O)Nc3ccon3)ccc12 [Example 549, 4-(4′-chloro-2-fluoro-5-methoxy-3′-methyl-4-biphenylyl)-N-3-isoxazolyl-3-oxo-2,3-dihydro-7-isoquinolinesulfonamide]	8.10	
COc1cc(-c2cccc(F)c2)c(F)cc1-c1nc(Cl)cc2cc(S(=O)(=O)Nc3ccon3)ccc12 [Example 393, 3-CHLORO-1-(2,3′-DIFLUORO-5-METHOXY-4-BIPHENYLYL)-N-3-ISOXAZOLYL-6-ISOQUINOLINESULFONAMIDE]	6.80	
COc1cc(-c2cc(Cl)ccc2C)c(C)cc1-c1ncnc2cc(S(=O)(=O)Nc3ccon3)ccc12 [Example 558, 4-(5′-chloro-5-methoxy-2,2′-dimethyl-4-biphenylyl)-N-3-isoxazolyl-7-quinazolinesulfonamide]	7.39	
COc1cc(-c2ccc(Cl)c(C)c2)ccc1-c1nccc2cc(S(=O)(=O)Nc3ccon3)ccc12 [Example 288, 1-(4′-chloro-3-methoxy-3′-methyl-4-biphenylyl)-N-3-isoxazolyl-6-isoquinolinesulfonamide]		pIC50 [2]: 7.11
COc1cc(-c2cc(F)cc(F)c2)c(C)cc1-c1ncnc2cc(S(=O)(=O)Nc3ccon3)ccc12 [Example 61, 4-(3′,5′-DIFLUORO-5-METHOXY-2-METHYL-[1,1′-BIPHENYL]-4-YL)-N-(ISOXAZOL-3-YL)QUINAZOLINE-7-SULFONAMIDE]		pIC50 (PatchXpress (PX)): 7.30
COc1cc(-c2cccc(C(F)(F)F)c2)c(F)cc1-c1c2ccc(S(=O)(=O)Nc3ccon3)cc2cc(=O)n1C [Example 546, 1-(2-fluoro-5-methoxy-3′-(trifluoromethyl)-4-biphenylyl)-N-3-isoxazolyl-2-methyl-3-oxo-2,3-dihydro-6-isoquinolinesulfonamide]	7.54	
COc1cc(-c2cc(OC)c(-c3ncnc4cc(S(=O)(=O)Nc5ccon5)ccc34)cc2C)ccc1F [Example 559, 4-(4′-fluoro-3′,5-dimethoxy-2-methyl-4-biphenylyl)-N-3-isoxazolyl-7-quinazolinesulfonamide]	7.24	
COc1cc(-c2cc(F)cc(Cl)c2)c(F)cc1-c1ncnc2cc(S(=O)(=O)Nc3ccon3)ccc12 [Example 302, 4-(3′-chloro-2,5′-difluoro-5-methoxy-4-biphenylyl)-N-3-isoxazolyl-7-quinazolinesulfonamide]		pIC50 [2]: 7.66
COc1cc(-c2cccc(Cl)c2)c(F)cc1-c1ncnc2cc(S(=O)(=O)Nc3ccsn3)ccc12 [Example 377, 4-(3′-Chloro-2-fluoro-5-methoxy-4-biphenylyl)-N-3-isothiazolyl-7-quinazolinesulfonamide]	7.05	
COc1cc(-c2ccc(Cl)c(C)c2)c(C)cc1-c1nccc2cc(S(=O)(=O)Nc3ccon3)ccc12 [Example 253, 1-(4′-chloro-5-methoxy-2,3′-dimethyl-4-biphenylyl)-N-3-isoxazolyl-6-isoquinolinesulfonamide]		pIC50 (PatchXpress (PX)): 6.93
COc1cc(-c2cccc(F)c2)c(Cl)cc1-c1ncnc2cc(S(=O)(=O)Nc3ncc(F)cn3)ccc12 [Example 289, 4-(2-chloro-3′-fluoro-5-methoxy-4-biphenylyl)-N-(5-fluoro-2-pyrimidinyl)-7-quinazolinesulfonamide]		pIC50 [2]: 7.05
COc1cc(-c2ccc(Cl)c(F)c2)c(C)cc1-c1nccc2cc(S(=O)(=O)Nc3ccon3)ccc12 [Example 286, 1-(4′-chloro-3′-fluoro-5-methoxy-2-methyl-4-biphenylyl)-N-3-isoxazolyl-6-isoquinolinesulfonamide]		pIC50 [2]: 6.73
COc1cc(-c2cccc(C(F)(F)F)c2)c(F)cc1-c1c2ccc(S(=O)(=O)Nc3ccon3)cc2cc(=O)n1C (atropisomer, axis not shown; (P)) [Example 551, (P)-1-(2-fluoro-5-methoxy-3′-(trifluoromethyl)-4-biphenylyl)-N-3-isoxazolyl-2-methyl-3-oxo-2,3-dihydro-6-isoquinolinesulfonamide]	7.55	
COc1cc(-c2cccc(C)c2)c(C)cc1-c1nccc2cc(S(=O)(=O)Nc3ccon3)ccc12 [Example 276, N-3-isoxazolyl-1-(5-methoxy-2,3′-dimethyl-4-biphenylyl)-6-isoquinolinesulfonamide]		pIC50 (PatchXpress (PX)): 6.77
COc1cc(-c2cc(C)cc(F)c2)c(Cl)cc1-c1ncnc2cc(S(=O)(=O)Nc3ccon3)ccc12 [Example 309, 4-(2-chloro-3′-fluoro-5-methoxy-5′-methyl-4-biphenylyl)-N-3-isoxazolyl-7-quinazolinesulfonamide]		pIC50 [2]: 7.40
COc1cc(Cl)c(C)cc1-c1ncnc2cc(S(=O)(=O)Nc3ccon3)ccc12 [Example 247, 4-(4-chloro-2-methoxy-5-methylphenyl)-N-3-isoxazolyl-7-quinazolinesulfonamide]		pIC50 (PatchXpress (PX)): 6.61
